# Experimental data: ChEMBL document CHEMBL1150038, “Conformation of the CYP2D6 model substrate sparteine under physiological conditions” (Bioorg Med Chem Lett, 1993)
# Assay: pKa value was determined
# Type: physicochemical
smiles,measurement,value
C1CCN2C[C@@H]3C[C@@H](CN4CCCC[C@@H]34)[C@H]2C1 [SPARTEINE],pKa,11.4
